Test results from patent publication EP4141110A1 (priority 2020, dated 2021).
Where “and” joins values, the source holds several entries; their conditions need not be identical. Identical values can stand only once.

The compounds below were run on mice. Conditions: mouse, in vivo.
`O=[N+]([O-])[O-].[Ag+]` [AgNO3] was tested, and the “Therapeutic ratio × 10^-7” value was 180 × 10^-7.
For `O=[N+]([O-])[O-].O=[N+]([O-])[O-].O=[N+]([O-])[O-].[Ga+3]` [Ga(NO3)3, gallium trinitrate], the “DCL” value was 35 µg/dL, the “Therapeutic ratio × 10^-7” value was 9.2 × 10^-7 and the dCL/ daggl was 8.
For `[Na+].[O]=[V](=[O])[O-]` [NaVO3], the “DCL” value was 2.0 µg/dL, the “Therapeutic ratio × 10^-7” value was 67 × 10^-7 and the dCL/ daggl was 1.
With `O=C([O-])[O-].O=C([O-])[O-].O=C([O-])[O-].[Tl+3].[Tl+3]` [Tl2(CO3)3] the “DCL” value was 19 µg/dL, the “Therapeutic ratio × 10^-7” value was 14.6 × 10^-7 and the dCL/ daggl was 0.5.
In the case of `O=[N+]([O-])[O-].O=[N+]([O-])[O-].[Zn+2]` [Zn(NO3)2], the “Therapeutic ratio × 10^-7” value is reported as 50 × 10^-7.
`N.N.[Cl][Pt][Cl]` [cisplatin (cis-Pt(N H3)2 Cl2), cisplatin (cis-dichlorodiamminplatin) (II), reference compound] was tested, and the “DCL” value was 3.5 µg/dL, the “Therapeutic ratio × 10^-7” value was 7 × 10^-7 and the dCL/ daggl was 5.
In the case of `O=[N+]([O-])[O-].O=[N+]([O-])[O-].[Cu+2]` [Cu(NO3)2], the “Therapeutic ratio × 10^-7” value is reported as 25 × 10^-7.
`O=S(=O)(O)[S-].O=S(=O)(O)[S-].[Au].[Na+].[Na+].[Na+]` [AuH2Na3O6S4, aurothiosulfate] was tested, and the “Therapeutic ratio × 10^-7” value was 50 × 10^-7.
`[Cl][Pt-2]([Cl])([Cl])([Cl])([Cl])[Cl].[NH4+].[NH4+]` [(NH4)2[PtCl6], ammonium hexachloroplatinate (IV)] was tested, and the “Therapeutic ratio × 10^-7” value was 5 × 10^-7.
`O=C([O-])[O-].[Tl+].[Tl+]` [Tl2CO3] was tested, and the “DCL” value was 21 µg/dL, the “Therapeutic ratio × 10^-7” value was 13.1 × 10^-7 and the dCL/ daggl was 2.

Each compound was assayed on PC3 line. Conditions: not given.
Assay type: cell-based
With `O=[N+]([O-])[O-].[Ag+]` [AgNO3] the “% of PC3 death in the mixture with iRGD + 6APA ligand” value (“% of PC3 death in the mixture” for short) was 80% and 75% and 65%.
For `O=[N+]([O-])[O-].O=[N+]([O-])[O-].O=[N+]([O-])[O-].[Ga+3]` [Ga(NO3)3, gallium trinitrate], the “% of PC3 death in the mixture” value was 90% and 82% and 75%.
With `[Na+].[O]=[V](=[O])[O-]` [NaVO3] the “% of PC3 death in the mixture” value was 70% and 55% and 40%.
In the case of `O=C([O-])[O-].O=C([O-])[O-].O=C([O-])[O-].[Tl+3].[Tl+3]` [Tl2(CO3)3], the “% of PC3 death in the mixture” value is reported as 95% and 92% and 89%.
With `N.N.[Cl][Pt][Cl]` [cisplatin (cis-Pt(N H3)2 Cl2), cisplatin (cis-dichlorodiamminplatin) (II), reference compound] the “% of PC3 death in the mixture” value was 95% and 88% and 82%.
In the case of `O=[N+]([O-])[O-].O=[N+]([O-])[O-].[Cu+2]` [Cu(NO3)2], the “% of PC3 death in the mixture” value is reported as 85% and 82% and 65%.
With `O=S(=O)(O)[S-].O=S(=O)(O)[S-].[Au].[Na+].[Na+].[Na+]` [AuH2Na3O6S4, aurothiosulfate] the “% of PC3 death in the mixture” value was 75% and 70% and 56%.
`[Cl][Pt-2]([Cl])([Cl])([Cl])([Cl])[Cl].[NH4+].[NH4+]` [(NH4)2[PtCl6], ammonium hexachloroplatinate (IV)] was tested, and the “% of PC3 death in the mixture” value was 95% and 92% and 90%.
For `O=C([O-])[O-].[Tl+].[Tl+]` [Tl2CO3], the “% of PC3 death in the mixture” value was 95% and 85% and 80%.

These compounds were tested on cell cultures. Conditions: not given.
For `O=[N+]([O-])[O-].O=[N+]([O-])[O-].O=[N+]([O-])[O-].[Ga+3]` [Ga(NO3)3, gallium trinitrate], the “daggl” value was 20 pg/dL.
With `[Na+].[O]=[V](=[O])[O-]` [NaVO3] the “daggl” value was 1 pg/dL.
`O=C([O-])[O-].O=C([O-])[O-].O=C([O-])[O-].[Tl+3].[Tl+3]` [Tl2(CO3)3] was tested, and the “daggl” value was 9 pg/dL.
With `N.N.[Cl][Pt][Cl]` [cisplatin (cis-Pt(N H3)2 Cl2), cisplatin (cis-dichlorodiamminplatin) (II), reference compound] the “daggl” value was 2 pg/dL.
For `O=C([O-])[O-].[Tl+].[Tl+]` [Tl2CO3], the “daggl” value was 12 pg/dL.
